This is an account of results in patent publication US4914201A, “Indolo[1,2-d][1,4]benzodiazepin-6(7H)-thiones” (Hoechst-Roussel Pharmaceuticals Inc., priority 1989, dated 1990).

This assay concerns 2-phenyl-1,4-benzoquinone-induced writhing in mice. The assay is described as follows: 2-phenyl-1,4-benzoquinone-induced writhing test in mice (analgesia, phenylquinone writhing, PQW). It is filed as in vivo. From the text: The compounds of Formula I of the present invention are useful as analgesic agents due to their ability to alleviate pain in mammals. […] Exptl. Biol. Med., 95, 729 (1957)].
Background: Writhing tests count abdominal constrictions after an irritant is injected.
As to `Cc1nnc2n1-c1ccc(Cl)cc1-c1c(Cl)c3ccccc3n1C2` [Example 11, 10,12-Dichloro-1-methyl-4H-indolo[1,2-d][1,2,4]triazolo[4,3-a][1,4]benzodiazepine], the “Analgesic PQW, % Inhibition of Writhing at 20 mg/kg., s.c.” value (“Analgesic PQW, % Inhibition of Writhing” for short) came out at 32%.

In the case of `Cc1nnc2n1-c1ccccc1-c1c(Cl)c3ccccc3n1C2` [Example 8, 10-chloro-1-methyl-4H-indolo-[1,2-d][1,2,4]triazolo[4,3-a]-[1,4]benzodiazepine], the “Analgesic PQW, % Inhibition of Writhing” value is recorded as 51%.

Turning to `Cc1nnc2n1-c1ccccc1-c1cc3ccccc3n1C2` [Example 7, 1-Methyl-4H-indolo[1,2-d][1,2,4]triazolo[4,3-a][1,4]benzodiazepine], the “Analgesic PQW, % Inhibition of Writhing” value was determined as 37%.

`Cc1nnc2n1-c1ccc(Cl)cc1-c1cc3ccccc3n1C2` [Example 9, 12-Chloro-1-methyl-4H-indolo[1,2-d][1,2,4]triazolo[4,3-a][1,4]benzodiazepine]: the “Analgesic PQW, % Inhibition of Writhing” value came out at 46%.
